Where two headings read alike, the source gives them in different places. Values belong to the compound of their own block, whether it stands above or below them.
Key:
[1] = system: oxygen consumption by PANC-1 cells; assay: Oxygen consumption (Oxygen Consumption Rate Assay Kit); type: cell-based, human; conditions: PANC-1 in general glucose medium
Description: Figure 3 Effect of compounds 1 and 2 on the oxygen consumption by PANC-1 cells. The precultured PANC-1 cells in the 96-well plates were incubated in general culture medium for 12 h at 37 °C. The medium was then replaced with fresh medium; subsequently, the test compound was added, followed by addition of the phosphorescent probe to measure the oxygen consumption. The signals were measured with a Tecan Infinite M1000 microplate reader by using the time-resolved mode. Differences were considered significant at * p < 0.05. CCCP: carbonyl cyanide m-chlorophenylhydrazone.
The oxygen consumption of PANC-1 cells was analyzed using the Oxygen Consumption Rate Assay Kit (Cayman Chemical) following the manufacturer’s instructions. Briefly, precultured PANC-1 cells (8.0 × 10^4 cells) in black/clear bottom 96-well plates (Corning Incorporated) were incubated for 12 h at 37 °C in general glucose medium. […] The signals were measured using an Infinite M1000 microplate reader (Tecan Group Ltd., Zurich, Switzrland) in the time-resolved mode at Ex 380 nm and Em 650 nm for 180 min, with a 1-min time interval. Linear regression was applied after subtracting the blank, and the oxygen consumption rate was determined by the slope of each signal profile.

lung cancer cells = system: lung cancer cells; design: method as in PMID 26479318, PMID 21725807; conditions: general culture conditions; cited from earlier work
[2] = system: glucose-6-phosphate dehydrogenase; design: method as in PMID 26479318; conditions: against breast cancer cells; cited from earlier work
cervical carcinoma cells = system: cervical carcinoma cells; design: method as in PMID 24071573; conditions: general culture conditions; cited from earlier work
K562 cell lines = system: K562 cell lines; design: method as in PMID 26479318; conditions: K562, general culture conditions; cited from earlier work
[3] = system: mitochondrial membrane potential of human pancreatic carcinoma PANC-1 cells; assay: Mitochondrial membrane potential (JC-1 MitoMP Detection Kit); type: cell-based; conditions: PANC-1 adapted to glucose-deficient medium; 1 h treatment; JC-1 Red/Green ratio
Description: Figure 2 Effect of compounds 1 and 2 on the mitochondrial membrane potential of human pancreatic carcinoma PANC-1 cells. PANC-1 cells that adapted to glucose-deficient medium in the 96-well plates were treated with the indicated concentrations of the compounds for 1 h. Next, JC-1 working solution was added for measuring the mitochondrial membrane potential, and the plate was incubated for 30 min. The fluorescence intensity of the cells was measured using a Tecan Infinite M1000 microplate reader at Ex 485 nm and Em 535 nm (Green color fluorescence) and Ex 535 nm and Em 595 nm (Red color fluorescence). Differences were considered significant at * p < 0.05.
The mitochondrial membrane potential of PANC-1 cells was evaluated using the JC-1 MitoMP Detection Kit (Dojindo Laboratories) following the manufacturer’s instructions. […] The fluorescence intensity of the cells was assessed using an Infinite M1000 microplate reader (Tecan Group Ltd., Mannedorf, Switzerland) at Ex 485 nm and Em 535 nm (Green color fluorescence) and Ex 535 nm and Em 595 nm (Red color fluorescence). The ratio of the two fluorescence intensities (Red vs. Green) was then calculated.

[4] = target: Mitochondrial complex III (coenzyme Q cytochrome c oxidoreductase) (Bos taurus, UniProt P00125+P00157+P13272); assay: MitoCheck Complex Activity Assay, complex III; type: biochemical, bovine
Description: (§1) The inhibitory activity of compound 1 on the mitochondrial electron transport chain (complexes I–V) was analyzed using MitoCheck Complex Activity Assay kits (Cayman Chemical) following the manufacturer’s instructions. The kits measured the enzymatic activity of each complex derived from bovine heart mitochondria in the following systems: Mitochondrial complex I (NADH oxidase/coenzyme Q reductase) activity was determined by measuring the decrease in NADH oxidation, which is reflected by a decrease in absorbance at 340 nm. Mitochondrial complex II (succinate dehydrogenase/coenzyme Q reductase) activity was assessed on the basis of the reduction rate of 2, 6-dichlorophenolindophenol (protonated by reduced coenzyme Q), which is reflected by a decrease in absorbance at 600 nm. Mitochondrial complex III (coenzyme Q cytochrome c oxidoreductase) activity was determined on the basis of the cytochrome c reduction rate, which is reflected by an increase in absorbance at 550 nm. Mitochondrial complex IV (cytochrome c oxidase) activity was determined by measuring the cytochrome c oxidation rate, which is reflected by a decrease in absorbance at 550 nm. Mitochondrial complex V (F1F0 ATP synthase) activity was determined by the NADH oxidation rate, which can be monitored at 340 nm.

NALM6 cell lines = system: NALM6 cell lines; design: method as in PMID 28810515; conditions: NALM6, general culture conditions; cited from earlier work
[5] = system: human pancreatic carcinoma PANC-1 cells; assay: Cytotoxicity against PANC-1 cells under glucose-deficient or general culture conditions (WST-8); type: cell-based; conditions: for IC50: Homo sapiens, 12 h treatment, WST-8; for S.I. (selectivity index): difference in IC50 values for general culture and glucose-deficient media
Description: PANC-1 cells were maintained in DMEM supplemented with heat-inactivated 10% FBS and kanamycin (50 µg/mL) and grown at 37 °C in a 5% CO2 atmosphere. […] The general culture medium—that is, basal medium containing 10% FBS and […] glucose (final concentration, 25 mM)—was used for comparison. The assay was performed as previously described. Briefly, PANC-1 cells (1 × 10^4 cells/100 µL in 96-well plastic plates) were preincubated in DMEM containing 10% FBS for 24 h. The medium was then changed with either the general glucose medium or glucose-deficient medium to induce adaption to nutrient starvation. After 12-h incubation, serially diluted samples were added to the media. Then, the cells were incubated for an additional 12 h at 37 °C in a 5% CO2 atmosphere. Cell proliferation was identified using WST-8. The IC50 values were determined by linear interpolation of the growth inhibition curve. We assessed the selectivity of the antiproliferative activity (S.I.) on the basis of the difference in the IC50 values for the general culture and glucose-deficient media.

[6] = system: nasopharyngeal carcinoma cells; design: method as in PMID 27694907; conditions: general culture conditions; cited from earlier work
[7] = target: T1, Mitochondrial complex IV (cytochrome c oxidase) (Bos taurus, UniProt P00396+P00415+P68530); assay: MitoCheck Complex Activity Assay, complex IV; type: biochemical; conditions: bovine heart mitochondria
T1 construct: enzymatic activity of each complex derived from bovine heart mitochondria; purchased Cayman Chemical; host or cells: bovine heart mitochondria (tissue-derived, supplied in kit)
Description: as §1, with “The” for “The inhibitory activity of compound 1 on the mitochondrial electron transport chain (complexes I–V) was analyzed using MitoCheck Complex Activity Assay kits (Cayman Chemical) following the manufacturer’s instructions. The”

[8] = target: T2, Mitochondrial complex II (succinate dehydrogenase/coenzyme Q reductase) (Bos taurus, UniProt P31039+P35720+Q3T189+Q95123); assay: MitoCheck Complex Activity Assay, complex II; type: biochemical, bovine; conditions: for IC50: bovine heart mitochondria
T2 construct: enzymatic activity of each complex derived from bovine heart mitochondria; purchased Cayman Chemical; host or cells: bovine heart mitochondria (tissue-derived, supplied in kit)
Description: as §1

SUPB15 cell lines = system: SUPB15 cell lines; design: method as in PMID 28810515; conditions: SUPB15, general culture conditions; cited from earlier work
colon cancer cells = system: colon cancer cells; design: method as in PMID 26707141, PMID 20837130; conditions: general culture conditions; cited from earlier work
[9] = system: hepatocellular carcinoma cells; design: method as in PMID 28042511, PMID 29710489; conditions: general culture conditions; cited from earlier work
CCRF-ADR5000 cells = system: CCRF-ADR5000 cells; design: method as in PMID 29707146; conditions: CCRF-ADR5000, general culture conditions; cited from earlier work
U937 cell lines = system: U937 cell lines; design: method as in PMID 20796195; conditions: U937, general culture conditions; cited from earlier work
breast cancer cells = system: breast cancer cells; design: method as in PMID 25574462; conditions: general culture conditions; cited from earlier work
P-388 cells = system: P-388 cells; design: method as in PMID 18758101; conditions: cited from earlier work
[10] = target: Mitochondrial complex I (NADH oxidase/coenzyme Q reductase) (Bos taurus, UniProt P03887+P17694+P25708+P42026); assay: MitoCheck Complex Activity Assay, complex I; type: biochemical, bovine
Description: as §1

K-562 cells = system: K-562 cells; design: method as in PMID 18758101; conditions: cited from earlier work
[11] = target: Mitochondrial complex V (F1F0 ATP synthase) (Bos taurus, UniProt P00829+P00847+P19483+P32876); assay: MitoCheck Complex Activity Assay, complex V; type: biochemical, bovine
Description: as §1

NCI-H460 cells = system: NCI-H460 cells; design: method as in PMID 18758101; conditions: 100 µg/mL (352 µM); cited from earlier work
HL-60 cells = system: HL-60 cells; design: method as in PMID 18758101; conditions: cited from earlier work
SF-268 cells = system: SF-268 cells; design: method as in PMID 18758101; conditions: 100 µg/mL (352 µM); cited from earlier work
MCF-7 cells = system: MCF-7 cells; design: method as in PMID 18758101; conditions: 100 µg/mL (352 µM); cited from earlier work
A-549 cells = system: A-549 cells; design: method as in PMID 18758101; conditions: cited from earlier work
[12] = system: oxygen consumption by PANC-1 cells; design: method as in PMID 32002808, PMID 26204821; conditions: cited from earlier work
[13] = PANC-1, glucose-deficient medium, 12 h adaptation
[14] = conversion of 10 µg/mL, read-out: IC50

Chain of Mitochondrial complex III (coenzyme Q cytochrome c oxidoreductase) (P00125 85-325): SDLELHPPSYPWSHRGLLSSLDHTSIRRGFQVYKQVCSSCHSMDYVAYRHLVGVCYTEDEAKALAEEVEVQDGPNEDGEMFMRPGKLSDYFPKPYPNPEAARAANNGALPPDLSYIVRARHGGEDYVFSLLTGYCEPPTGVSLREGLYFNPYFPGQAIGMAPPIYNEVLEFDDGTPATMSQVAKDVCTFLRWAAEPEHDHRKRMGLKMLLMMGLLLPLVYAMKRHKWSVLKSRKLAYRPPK
Chain of Mitochondrial complex III (coenzyme Q cytochrome c oxidoreductase) (P00157 whole entry): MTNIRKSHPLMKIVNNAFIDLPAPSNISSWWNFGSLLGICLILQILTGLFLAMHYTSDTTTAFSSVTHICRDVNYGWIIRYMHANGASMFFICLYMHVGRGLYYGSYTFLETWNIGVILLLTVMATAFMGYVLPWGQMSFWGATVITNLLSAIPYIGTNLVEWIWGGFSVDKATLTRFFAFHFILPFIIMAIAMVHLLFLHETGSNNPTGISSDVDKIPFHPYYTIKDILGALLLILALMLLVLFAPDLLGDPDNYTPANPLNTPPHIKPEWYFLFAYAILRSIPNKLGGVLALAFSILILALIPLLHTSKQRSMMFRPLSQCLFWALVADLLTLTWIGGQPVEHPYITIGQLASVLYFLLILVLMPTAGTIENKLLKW
Chain of Mitochondrial complex III (coenzyme Q cytochrome c oxidoreductase) (P13272 whole entry): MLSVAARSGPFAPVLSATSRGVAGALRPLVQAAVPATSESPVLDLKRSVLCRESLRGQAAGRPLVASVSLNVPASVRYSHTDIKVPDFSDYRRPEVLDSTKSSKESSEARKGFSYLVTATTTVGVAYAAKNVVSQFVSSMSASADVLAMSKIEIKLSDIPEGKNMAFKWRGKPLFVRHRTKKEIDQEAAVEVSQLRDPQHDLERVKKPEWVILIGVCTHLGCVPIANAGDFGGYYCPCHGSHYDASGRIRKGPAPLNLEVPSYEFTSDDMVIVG
T2 sequence (P31039 44-665): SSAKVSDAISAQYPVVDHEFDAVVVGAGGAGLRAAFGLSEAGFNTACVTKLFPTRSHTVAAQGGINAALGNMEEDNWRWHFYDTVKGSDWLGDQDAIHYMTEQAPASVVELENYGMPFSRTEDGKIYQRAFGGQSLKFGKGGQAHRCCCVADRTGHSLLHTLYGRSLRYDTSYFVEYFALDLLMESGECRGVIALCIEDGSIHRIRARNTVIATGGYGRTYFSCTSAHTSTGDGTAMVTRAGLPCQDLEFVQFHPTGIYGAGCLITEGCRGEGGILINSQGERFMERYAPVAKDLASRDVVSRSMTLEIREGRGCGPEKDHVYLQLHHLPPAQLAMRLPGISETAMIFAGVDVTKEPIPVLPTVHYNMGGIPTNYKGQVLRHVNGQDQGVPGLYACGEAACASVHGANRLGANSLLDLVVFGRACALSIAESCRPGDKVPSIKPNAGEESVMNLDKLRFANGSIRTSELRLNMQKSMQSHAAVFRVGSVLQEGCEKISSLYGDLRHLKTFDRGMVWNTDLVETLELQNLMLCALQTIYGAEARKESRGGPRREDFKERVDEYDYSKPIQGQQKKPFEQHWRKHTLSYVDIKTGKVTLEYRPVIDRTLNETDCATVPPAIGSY
T2 sequence (Q3T189 29-280): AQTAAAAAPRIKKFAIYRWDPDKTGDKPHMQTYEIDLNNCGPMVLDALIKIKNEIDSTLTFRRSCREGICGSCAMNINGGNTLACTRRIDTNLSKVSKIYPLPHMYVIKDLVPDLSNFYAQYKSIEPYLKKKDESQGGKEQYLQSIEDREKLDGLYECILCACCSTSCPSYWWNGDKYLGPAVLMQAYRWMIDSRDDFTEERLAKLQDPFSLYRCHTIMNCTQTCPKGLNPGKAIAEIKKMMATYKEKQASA
T2 sequence (P35720 30-169): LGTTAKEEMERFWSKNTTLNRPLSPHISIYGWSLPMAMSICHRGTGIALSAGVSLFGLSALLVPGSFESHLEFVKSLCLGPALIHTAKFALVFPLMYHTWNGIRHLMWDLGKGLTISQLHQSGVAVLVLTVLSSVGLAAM
T2 sequence (Q95123 56-158): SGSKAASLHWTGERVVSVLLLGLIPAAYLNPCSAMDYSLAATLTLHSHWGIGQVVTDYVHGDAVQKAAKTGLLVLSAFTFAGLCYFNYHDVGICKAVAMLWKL

Compound: COc1cc(O)c2c(c1)C(=O)c1cc(C)cc(O)c1C2=O [Compound 1, physcion]
effect on oxygen consumption [1]: inhibit oxygen consumption to a similar extent as antimycin A | IC50 (lung cancer cells): 15.1 to 35.1 µM | inhibition of glucose-6-phosphate dehydrogenase [2]: specific inhibitor | IC50 (cervical carcinoma cells): 100 µM | IC50 (K562 cell lines): 12.5 µM | effect on mitochondrial membrane potential [3]: dose-dependently decrease | inhibition at 100 µM [4]: 9% | IC50 ([4]; bovine heart mitochondria): > 100 µM | IC50 (NALM6 cell lines): 5 µM | IC50 ([5]; PANC-1, general glucose medium): 1017 ± 0.05 µM | IC50 [5, 13]: 6 ± 0.1 µM | S.I. (selectivity index) [5]: 169.5 | IC50 [6]: 20 µM | IC50 [7]: 34 ± 0.3 µM | IC50 [8]: 90 ± 0.11 µM | IC50 (SUPB15 cell lines): 5 µM | IC50 (colon cancer cells): 10 to 50 µM | IC50 [9]: 10 µM | IC50 (CCRF-ADR5000 cells): 74.8 µM | IC50 (U937 cell lines): 27.9 µM | IC50 (breast cancer cells): 45.4 µM

inhibition of complex V ([11]; 100 µM): not inhibited | IC50 ([11]; bovine heart mitochondria): > 100 µM | inhibition at 100 µM [4]: 6% | IC50 ([4]; bovine heart mitochondria): > 100 µM | IC50 [7]: 20 ± 0.3 µM | inhibition at 100 µM ([8]; 100 µM): 24% | IC50 [8]: > 100 µM
Compound: C/C=C/C=C/c1cc2c(C=O)c(O)c(CC=C(C)C)cc2o1 [Compound 2, 2-(2′,3-epoxy-1′,3′,5′-heptatrienyl)-6-hydroxy-5-(3-methyl-2-butenyl) benzaldehyde]
IC50 (P-388 cells): higher than 10 µg/mL | IC50 (P-388 cells; [14]): > 35.2 µM | inhibition at 100 µM ([10]; 100 µM): 18% | IC50 ([10]; bovine heart mitochondria): > 100 µM | effect on oxygen consumption [1]: inhibit oxygen consumption to a similar extent as antimycin A | IC50 (K-562 cells): higher than 10 µg/mL | IC50 (K-562 cells; [14]): > 35.2 µM | cytotoxic effect (NCI-H460 cells): more than 90% | IC50 (HL-60 cells): higher than 10 µg/mL | IC50 (HL-60 cells; [14]): > 35.2 µM | effect on mitochondrial membrane potential [3]: dose-dependently decrease | cytotoxic effect (SF-268 cells): more than 90% | IC50 ([5]; PANC-1, general glucose medium): 859 ± 1 µM | IC50 [5, 13]: 1.7 ± 0.05 µM | selective growth-inhibitory activity under glucose-deficient vs general culture conditions ([5]; PANC-1): 505 fold | cytotoxic effect (MCF-7 cells): more than 90% | IC50 (A-549 cells): higher than 10 µg/mL | IC50 (A-549 cells; [14]): > 35.2 µM

Compound: COC(=O)[C@@]12Oc3ccc(-c4ccc5c(c4O)C(O)C4=C(O)C[C@H](C)[C@@H](O)[C@]4(C(=O)OC)O5)c(O)c3C(=O)C1=C(O)C[C@H](C)[C@H]2O (stereo partly drawn) [secalonic acid D]
effect on oxygen consumption [12]: increase the oxygen consumption

Compound: N#CC(C#N)=NNc1cccc(Cl)c1 [CCCP, carbonyl cyanide m-chlorophenylhydrazone]
effect on oxygen consumption [12]: increase the oxygen consumption

Compound: O=C(CC(=O)C(F)(F)F)c1cccs1 [thenoyltrifluoroacetone, reference compound]
IC50 [8]: 68 ± 0.01 µM

Compound: CCCCCC[C@H]1C(=O)O[C@H](C)[C@H](NC(=O)c2cccc(NC=O)c2O)C(=O)O[C@@H](C)[C@@H]1OC(=O)CC(C)C [Antimycin A, reference compound]
effect on oxygen consumption [12]: reduces oxygen consumption | IC50 [4]: 0.03 ± 0.01 µM | IC50 ([5]; PANC-1, general glucose medium): 288 ± 0.5 µM | IC50 [5, 13]: 0.0003 µM | S.I. (selectivity index) [5]: 960,000
